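Interpolation was linear, between the two tested concentrations surrounding the appropriate level; five concentrations were tested over 48 hours in 96-well plates. Definition used: TGI = concentration required for complete inhibition of growth.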
Experiments:
Experiment in all cases: NCI tumour cell line growth inhibition, 48 h
[1] = test system: DMS 114 small cell lung
[2] = test system: KM20L2 colon
[3] = test system: XF 498 CNS
[4] = test system: SNB-78 CNS
[5] = test system: P388 leukemia
[6] = test system: DLD-1 colon
[7] = test system: DMS 273 small cell lung
[8] = test system: LXFL 529 NSCLC

SMILES	TGI [1]	TGI [2]	TGI [3]	TGI [4]	TGI [5]	TGI [6]	TGI [7]	TGI [8]
O=C1OC2CC=CC1C2 (stereo not drawn)	> 100 µM	> 100 µM	> 100 µM	> 100 µM	> 100 µM	> 100 µM	> 100 µM	–
O=C(Oc1ccc(Cl)cc1[N+](=O)[O-])c1ccccc1	> 100 µM	> 100 µM	> 100 µM	> 100 µM	–	> 100 µM	> 100 µM	> 100 µM
COc1ccc(OC)c(CC(C)N)c1 (stereo not drawn)	> 100 µM	> 100 µM	> 100 µM	–	–	> 100 µM	–	> 100 µM
CC(C)(C)OC(=O)NC1CCC(C(C)(C)C)CC1 (stereo not drawn)	> 100 µM	> 100 µM	> 96.5 µM	> 100 µM	48.5 µM	> 100 µM	99.2 µM	–
C=C1C(=O)OC2CC1CCC1(C)OC1CCC(C)=CCCC2(C)O (stereo not drawn)	9.27 µM	8.58 µM	8.47 µM	26.3 µM	3.06 µM	6.12 µM	9.89 µM	–

— PubChem BioAssay (NCI)
